How the values were obtained:
RORα = biological target: T1, RORα (Mus musculus, UniProt P51448); assay: RORα dependency of TFAM expression, si-RORα transfection in C2C12 cells; type: cell-based; settings: JC1-40 20 μM, 48 hours
T1 construct: endogenous in cells; host or cells: C2C12 cells
T1 sequence (P51448 1-523): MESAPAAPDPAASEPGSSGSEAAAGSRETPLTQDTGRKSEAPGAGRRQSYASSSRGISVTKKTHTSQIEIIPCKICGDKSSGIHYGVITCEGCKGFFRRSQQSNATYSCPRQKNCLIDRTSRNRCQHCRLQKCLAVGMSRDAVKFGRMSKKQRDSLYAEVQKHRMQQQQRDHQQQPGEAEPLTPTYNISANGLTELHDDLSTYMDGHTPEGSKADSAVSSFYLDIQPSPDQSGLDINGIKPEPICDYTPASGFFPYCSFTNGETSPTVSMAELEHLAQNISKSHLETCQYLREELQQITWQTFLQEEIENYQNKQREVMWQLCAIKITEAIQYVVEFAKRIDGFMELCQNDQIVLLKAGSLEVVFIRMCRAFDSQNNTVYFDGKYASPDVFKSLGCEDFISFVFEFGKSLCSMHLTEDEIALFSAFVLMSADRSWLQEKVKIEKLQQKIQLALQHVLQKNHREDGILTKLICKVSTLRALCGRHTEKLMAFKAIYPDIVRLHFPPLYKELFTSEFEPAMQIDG
Method: C2C12 cells (8×10^5 cells/dish) were seeded in a 60 mm dish and cultured overnight in DMEM (Dulbecco's modified Eagle's medium) containing 10% FBS (fetal bovine serum). The C2C12 cells were maintained at 37° C. in a humidified incubator with 5% CO2 and 95% air. After 24 hours of cultivation, si-RORα (250 pmoles) and si-GL3 (control group) were transfected into C2C12 cells using Lipofectamine 2000 (Thermo Fisher Scientific). After 24 hours post-transfection, the medium was switched to DMEM differentiation medium containing 2% horse serum, and treated with JC1-40 (20 μM) for 48 hours. The methods for RNA and protein extraction were as previously mentioned.

C2C12 cells [1] = assay: mRNA expression of mitochondrial biosynthesis regulators (PGC-1α, NRF-1, NRF-2α, TFAM), real-time PCR; type: cell-based; settings: JC1-40 20 μM, 48 hours
Method: C2C12 cells (8×10^5 cells/dish) were seeded in a 60 mm dish and cultured in DMEM (Dulbecco's modified Eagle's medium) containing 10% FBS (fetal bovine serum). The C2C12 cells were maintained at 37° C. in a humidified incubator with 5% CO2 and 95% air. After 48 hours of cultivation, the medium was changed to DMEM differentiation medium containing 2% horse serum, and treated with JC1-40 (20 μM) and solvent (control group). 48 hours after changing to the differentiation medium, RNA was extracted. The RNA extraction method is as described in Example 3. The results of the mRNA expression of mitochondrial biosynthesis regulators PGC-1α(Peroxisome proliferator-activated receptor gamma coactivator 1-alpha), NRF-1 (Nuclear Respiratory Factor 1), NRF-2a (Nuclear Respiratory Factor 2 alpha), and TFAM (Mitochondrial transcription factor A) induced by JC1-40 are shown in FIG. 4A.

C2C12 cells [2] = assay: Protein expression of NRF1 and TFAM, Western blotting; type: cell-based; settings: JC1-40 20 μM
Method: Using a method identical to the above, after treating C2C12 cells with the compound JC1-40, the expression of the mitochondrial biosynthesis regulators, NRF1 and TFAM proteins, was analyzed by Western blotting. Specific antibodies for NRF1 (Santa Cruz Biotechnology), TFAM (Santa Cruz Biotechnology), and α-tubulin (Millipore) were also used.

C2C12 cells [3] = assay: mRNA expression of mitochondrial constituent genes (SDHA, COX5A, MCAD), real-time PCR; type: cell-based; settings: JC1-40 20 μM, 48 hours
Method: C2C12 cells (8×10^5 cells/dish) were seeded in a 60 mm dish and cultured in DMEM (Dulbecco's modified Eagle's medium) medium containing 10% FBS (fetal bovine serum). C2C12 cells were maintained at 37° C. in a humidified incubator with 5% CO2 and 95% air. After 48 hours of cultivation, the medium was changed to DMEM differentiation medium containing 2% horse serum, and the cells were treated with JC1-40 (20 μM) and solvent (control group). After 48 hours from the replacement of the differentiation medium, RNA was extracted. For extraction, the cells were dissolved with EASY BLUE (Intron, Korea), and isopropanol fractionation and ethanol precipitation were utilized. cDNA was synthesized from each RNA sample, and oligomers amplifying the cDNA of specific genes were utilized, monitoring the expression of R-actin as a control group. More specifically, an mRNA-M-MLV mixture was prepared using M-MLV reverse transcriptase (Invitrogen), and reverse transcription polymerase chain reaction was conducted using a thermal cycler. Subsequently, real-time polymerase chain reaction was performed using the ABI StepOnePlus Real-Time PCR system (Applied Biosystems).

C2C12 cells [4] = assay: Mitochondrial membrane potential, TMRM staining of C2C12 myotubes; type: cell-based; settings: JC1-40 20 μM, 48 hours in differentiation medium, vs solvent control
Method: C2C12 cells (2×10^5 cells/well) were seeded in a 12-well culture plate and cultivated in DMEM (Dulbecco's modified Eagle's medium) medium containing 10% FBS (fetal bovine serum). The C2C12 cells were maintained at 37° C. in a humidified incubator with 5% CO2 and 95% air. After 48 hours of cultivation, the medium was changed to DMEM (Dulbecco's modified Eagle's medium) differentiation medium containing 2% horse serum, and the cells were treated with JC1-40 (20 μM) and solvent (control group). 48 hours after changing the differentiation medium, the mitochondria of the C2C12 cells were stained with Tetramethylrhodamine, Methyl Ester, and Perchlorate (TMRM) 600 nM. After 20 minutes, the medium was replaced with new medium containing TMRM 150 nM, and red fluorescence was observed after 10 minutes.

TFAM promoter = TFAM promoter transcriptional activity, human TFAM-Luc reporter luciferase assay in C2C12 cells; type: cell-based; settings: JC1-40 20 μM, 24 hours
Method: C2C12 cells (1×10^5 cells/well) were seeded in a 12-well culture plate and cultured overnight in DMEM containing 10% FBS. The C2C12 cells were maintained at 37° C. in a humidified incubator with 5% CO2 and 95% air. After 24 hours of cultivation, human TFAM-Luc reporter (100 ng) was transfected into C2C12 cells using PolyFect (QIAGEN). After 24 hours post-transfection, the medium was changed to DMEM differentiation medium containing 2% horse serum, and treated with JC1-40 (20 μM) and solvent (control group). 24 hours later, cell lysates were obtained and luciferase activity was analyzed and determined using an analytical luminescence luminometer.

[5] = tested on: male C57BL/6 mice, high-fat diet; assay: High-fat diet-induced animal model, gastrocnemius tissue immunofluorescence; type: in vivo; settings: JC1-40 5 mg/kg orally once a day for 5 weeks
Method: To confirm the correlation between the administration of JC1-40, an increase in mitochondrial biosynthesis, and the suppression of sarcopenia, experiments were conducted using a diet-induced animal model. Specifically, male C57BL/6 mice aged 5 weeks were acclimatized in a temperature and humidity-controlled environment for one week and were provided with a high-fat diet (fats derived from lard and soybean oil, 60 kcal % included, Research diets) for 12 weeks. From the 8th week of the diet, JC1-40 was orally administered once a day for 5 weeks at a concentration of 5 mg/kg (FIG. 6A). In detail, an amount of JC1-40 corresponding to the final concentration was measured and added to sterile water containing 0.5% carboxymethyl cellulose, and then uniformly suspended using a mortar and pestle to produce the drug. The dose for each mouse subject was taken and orally administered using a Sonde. The control group was administered sterile water containing 0.5% carboxymethyl cellulose in the same manner. After 12 weeks of diet were completed, the mice were anesthetized, the gastrocnemius tissue was extracted, and it was fixed using a 4% paraformaldehyde solution. The fixed tissue underwent washing, decalcification, and dehydration, and was ultimately made into a paraffin block using paraffin. The created paraffin block was cut into sections with a thickness of 3 μm, and after creating sections, protein expression was confirmed with fluorescence using specific antibodies for COX4 (Cytochrome c oxidase subunit 4, Santa Cruz Biotechnology) and TFAM (Mitochondrial transcription factor A, Santa Cruz Biotechnology).

HeLa cells = assay: Mitochondrial quantity, MitoTracker Green staining of HeLa cells; type: cell-based; settings: JC1-40 5 μM and 50 μM, 24 hours, vs solvent control
Method: HeLa cells (4×10^4 cells/well) were seeded in a 12-well culture plate and cultivated overnight in DMEM (Dulbecco's modified Eagle's medium) medium containing 10% FBS (fetal bovine serum). The HeLa cells were maintained at 37° C. in a humidified incubator with 5% CO2 and 95% air. After 24 hours of cultivation, the medium was replaced and JC1-40 (5 μM, 50 μM), and solvent (control group) were treated for 24 hours.

- increase in TFAM expression with si-RORα (RORα; C2C12 cells transfected with si-RORα (250 pmoles)): did not occur
- protein expression of TFAM (RORα; C2C12 cells, si-GL3 control): increased
Compound: CNC(=S)NCc1ccc(OCc2ccccc2)cc1 [JC1-40, 1-methyl-3-[(4-phenylmethoxyphenyl)methyl]thiourea]
- mRNA expression of NRF-1 (C2C12 cells [1]): increased
- mRNA expression of NRF-2 (C2C12 cells [1]): increased
- mRNA expression of PGC-1α (C2C12 cells [1]): increased
- mRNA expression of TFAM (C2C12 cells [1]): increased
- protein expression of NRF-1 (C2C12 cells [2]): increased
- protein expression of TFAM (C2C12 cells [2]): increased
- mRNA expression of COX5A (C2C12 cells [3]): increased
- mRNA expression of MCAD (C2C12 cells [3]): increased
- mRNA expression of SDHA (C2C12 cells [3]): increased
- red fluorescence (TMRM), mitochondrial membrane potential (C2C12 cells [4]): increased
- transcriptional activity of the TFAM promoter (luciferase activity) (TFAM promoter): confirmed to be due to the transcriptional activity of the TFAM promoter
- protein expression of COX4 in gastrocnemius tissue [5]: significantly increased
- protein expression of TFAM in gastrocnemius tissue [5]: significantly increased
- sarcopenia induced by the high-fat diet [5]: significantly improved
- green fluorescence (MitoTracker Green), quantity of mitochondria (HeLa cells): increased in a concentration-dependent manner
